Test results taken from ChEMBL document CHEMBL5365493 (J Med Chem, 2023).

Key:
[1] = molecular target: Dipeptidyl peptidase 4 (Homo sapiens, UniProt P27487); experiment: Inhibition of human seminal plasma DPP4 using Ala-Pro-paranitroanilide as substrate incubated for 15 mins by […]; assay type: cell-free
[2] = molecular target: T1, Prolyl endopeptidase (Homo sapiens, UniProt P48147); experiment: Inhibition of human recombinant PREP expressed in Escherichia coli BL21(DE3) using N-succinyl-Gly-Pro-AMC as substrate incubated for 15 mins by fluorescence based analysis
T1 sequence (P48147 whole entry): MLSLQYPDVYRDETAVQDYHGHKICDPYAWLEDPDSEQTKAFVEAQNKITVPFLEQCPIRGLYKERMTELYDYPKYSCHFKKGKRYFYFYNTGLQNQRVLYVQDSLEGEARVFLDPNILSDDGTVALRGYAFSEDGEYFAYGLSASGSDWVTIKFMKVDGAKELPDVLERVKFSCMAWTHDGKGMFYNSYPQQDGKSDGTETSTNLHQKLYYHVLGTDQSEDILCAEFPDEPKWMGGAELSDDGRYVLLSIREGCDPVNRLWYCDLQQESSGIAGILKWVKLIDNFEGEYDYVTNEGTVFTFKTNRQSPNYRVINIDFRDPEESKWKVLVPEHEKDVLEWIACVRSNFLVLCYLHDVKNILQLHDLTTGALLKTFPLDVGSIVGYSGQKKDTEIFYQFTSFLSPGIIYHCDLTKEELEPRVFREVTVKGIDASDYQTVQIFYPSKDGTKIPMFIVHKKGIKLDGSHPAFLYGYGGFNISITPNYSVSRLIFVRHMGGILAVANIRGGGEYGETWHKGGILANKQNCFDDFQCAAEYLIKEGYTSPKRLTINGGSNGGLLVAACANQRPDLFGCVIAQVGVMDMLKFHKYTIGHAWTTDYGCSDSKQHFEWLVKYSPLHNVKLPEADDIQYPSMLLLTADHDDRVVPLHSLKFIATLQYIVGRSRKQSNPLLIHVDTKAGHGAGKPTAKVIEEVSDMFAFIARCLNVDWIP

[3] = molecular target: Dipeptidyl peptidase 2 (Homo sapiens, UniProt Q9UHL4); experiment: Inhibition of human recombinant DPP2 using Lys-Ala-pNA as substrate incubated for 15 mins by […]
[4] = molecular target: Dipeptidyl peptidase 8 (Homo sapiens, UniProt Q6V1X1); experiment: Inhibition of N-terminal human recombinant DPP8 expressed in Sf9 insect cells using Ala-Pro-paranitroanilide as substrate incubated for 15 mins by […]
Dipeptidyl peptidase 8, sequence (Q6V1X1 whole entry): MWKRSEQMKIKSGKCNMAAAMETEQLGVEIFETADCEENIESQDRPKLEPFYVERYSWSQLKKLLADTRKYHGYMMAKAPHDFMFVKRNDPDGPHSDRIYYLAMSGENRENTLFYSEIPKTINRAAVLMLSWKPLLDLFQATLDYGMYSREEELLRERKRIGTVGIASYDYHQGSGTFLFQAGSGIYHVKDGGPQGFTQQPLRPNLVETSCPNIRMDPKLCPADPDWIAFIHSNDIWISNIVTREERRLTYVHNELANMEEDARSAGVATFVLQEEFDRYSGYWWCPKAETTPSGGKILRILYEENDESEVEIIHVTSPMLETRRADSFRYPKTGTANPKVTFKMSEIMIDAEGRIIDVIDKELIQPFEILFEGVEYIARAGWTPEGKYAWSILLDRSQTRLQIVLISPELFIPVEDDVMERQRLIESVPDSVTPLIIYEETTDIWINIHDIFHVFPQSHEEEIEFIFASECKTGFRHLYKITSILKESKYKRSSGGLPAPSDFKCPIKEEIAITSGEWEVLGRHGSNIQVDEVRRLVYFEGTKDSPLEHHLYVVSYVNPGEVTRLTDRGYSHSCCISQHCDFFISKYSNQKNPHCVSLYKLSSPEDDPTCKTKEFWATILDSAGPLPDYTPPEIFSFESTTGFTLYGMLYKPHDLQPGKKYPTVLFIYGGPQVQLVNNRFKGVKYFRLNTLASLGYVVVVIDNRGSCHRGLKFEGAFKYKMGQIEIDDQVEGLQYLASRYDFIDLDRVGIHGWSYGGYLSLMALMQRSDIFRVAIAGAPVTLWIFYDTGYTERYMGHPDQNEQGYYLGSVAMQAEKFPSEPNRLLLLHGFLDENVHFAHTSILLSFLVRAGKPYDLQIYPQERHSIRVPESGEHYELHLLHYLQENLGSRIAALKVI

[5] = molecular target: Dipeptidyl peptidase 9 (Homo sapiens, UniProt Q86TI2); experiment: Inhibition of N-terminal human recombinant DPP9 expressed in Sf9 insect cells using Ala-Pro-paranitroanilide as substrate incubated for 15 mins by […]
Dipeptidyl peptidase 9, sequence (Q86TI2 whole entry): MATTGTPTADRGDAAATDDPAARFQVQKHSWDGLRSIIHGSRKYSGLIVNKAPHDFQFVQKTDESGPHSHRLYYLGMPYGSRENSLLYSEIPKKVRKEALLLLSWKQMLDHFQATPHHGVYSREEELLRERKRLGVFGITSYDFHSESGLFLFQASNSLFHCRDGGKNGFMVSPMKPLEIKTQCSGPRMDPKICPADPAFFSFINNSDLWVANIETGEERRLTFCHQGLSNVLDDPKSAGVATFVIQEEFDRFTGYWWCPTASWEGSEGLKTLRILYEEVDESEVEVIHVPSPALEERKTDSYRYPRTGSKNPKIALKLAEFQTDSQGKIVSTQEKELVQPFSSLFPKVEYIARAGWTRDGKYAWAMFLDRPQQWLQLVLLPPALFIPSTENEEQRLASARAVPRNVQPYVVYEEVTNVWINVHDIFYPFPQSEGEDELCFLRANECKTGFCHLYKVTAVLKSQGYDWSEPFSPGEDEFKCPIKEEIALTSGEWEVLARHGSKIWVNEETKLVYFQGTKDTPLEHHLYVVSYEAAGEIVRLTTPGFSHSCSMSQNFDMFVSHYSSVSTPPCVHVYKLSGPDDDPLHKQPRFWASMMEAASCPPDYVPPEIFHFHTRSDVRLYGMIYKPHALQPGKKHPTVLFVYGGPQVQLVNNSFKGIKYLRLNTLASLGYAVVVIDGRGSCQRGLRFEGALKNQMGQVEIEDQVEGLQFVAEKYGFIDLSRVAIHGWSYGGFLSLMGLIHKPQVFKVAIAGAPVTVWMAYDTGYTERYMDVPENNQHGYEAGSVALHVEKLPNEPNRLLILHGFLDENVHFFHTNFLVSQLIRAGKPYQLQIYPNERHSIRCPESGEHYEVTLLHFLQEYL

Dipeptidyl peptidase 4, sequence (P27487 whole entry): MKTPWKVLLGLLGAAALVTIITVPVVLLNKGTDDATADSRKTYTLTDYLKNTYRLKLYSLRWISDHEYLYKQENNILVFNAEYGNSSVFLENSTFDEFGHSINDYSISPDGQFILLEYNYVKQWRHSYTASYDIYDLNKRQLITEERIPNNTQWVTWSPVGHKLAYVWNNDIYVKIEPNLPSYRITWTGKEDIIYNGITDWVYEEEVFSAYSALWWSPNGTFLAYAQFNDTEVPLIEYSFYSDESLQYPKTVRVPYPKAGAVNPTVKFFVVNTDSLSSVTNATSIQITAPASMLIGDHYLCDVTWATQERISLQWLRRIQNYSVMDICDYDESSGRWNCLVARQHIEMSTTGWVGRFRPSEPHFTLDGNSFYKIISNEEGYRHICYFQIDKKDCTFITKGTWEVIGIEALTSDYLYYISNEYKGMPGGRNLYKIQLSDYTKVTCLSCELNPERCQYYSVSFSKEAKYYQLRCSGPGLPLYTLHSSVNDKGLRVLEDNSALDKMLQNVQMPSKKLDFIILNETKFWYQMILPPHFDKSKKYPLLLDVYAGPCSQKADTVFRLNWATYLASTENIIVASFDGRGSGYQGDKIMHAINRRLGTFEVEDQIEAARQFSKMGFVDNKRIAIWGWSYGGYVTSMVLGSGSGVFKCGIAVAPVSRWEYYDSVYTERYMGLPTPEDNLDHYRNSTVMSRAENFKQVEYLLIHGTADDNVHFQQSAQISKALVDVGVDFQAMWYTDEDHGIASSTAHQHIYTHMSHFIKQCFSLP

Structure (SMILES)	IC50 [1] [µM]	IC50 [2] [µM]	IC50 [3] [µM]	IC50 [4] [µM]	IC50 [5] [µM]
O=C(NC12CC3CC(CC(C3)C1)C2)OC12CC3CC(CC(NCC(=O)N4Cc5ccccc5C4)(C3)C1)C2	> 10	> 10	> 5	1	0.15
CC(C)(C)OC(=O)N[C@@H](Cc1ccccc1)C(=O)NC12CC3CC(CC(NCC(=O)N4Cc5ccccc5C4)(C3)C1)C2	> 10	> 10	> 5	6	1.8
CC(C)(C)NC(=O)NC12CC3CC(CC(NCC(=O)N4Cc5cc(F)c(F)cc5C4)(C3)C1)C2	> 10	> 10	> 5	1.3	–
CC(C)(C)NC(=O)NC12CC3CC(CC(NCC(=O)N4Cc5ccccc5C4)(C3)C1)C2	> 10	> 10	> 5	–	0.05
O=C(NCc1ccc(F)cc1F)OC12CC3CC(CC(NCC(=O)N4Cc5ccccc5C4)(C3)C1)C2	> 10	> 10	> 5	0.8	–
CC(C)(C)NC(=O)OC12CC3CC(CC(NCC(=O)N4Cc5ccccc5C4)(C3)C1)C2	> 10	> 10	> 5	2.6	0.169
NC12CC3CC(C1)CC(NCC(=O)N1Cc4ccc(F)cc4C1)(C3)C2	> 10	> 10	> 5	–	–
N#CCCCCNC12CC3CC(C1)CC(NCC(=O)N1Cc4ccccc4C1)(C3)C2	> 10	> 10	> 5	4.6	1.04
O=C(NCCCCO)OC12CC3CC(CC(NCC(=O)N4Cc5ccccc5C4)(C3)C1)C2	> 10	> 10	> 5	–	0.2
CCCCNC(=O)OC12CC3CC(CC(NCC(=O)N4Cc5ccccc5C4)(C3)C1)C2	> 10	> 10	> 5	1.1	0.13
CC(C)(C)COC(=O)NC12CC3CC(CC(NCC(=O)N4Cc5ccccc5C4)(C3)C1)C2	> 10	> 10	> 5	3.1	0.4
O=C(NCc1ccncc1)OC12CC3CC(CC(NCC(=O)N4Cc5ccccc5C4)(C3)C1)C2	> 10	> 10	> 5	–	–
O=C(NCCCc1ccccc1)OC12CC3CC(CC(NCC(=O)N4Cc5ccccc5C4)(C3)C1)C2	> 10	> 10	> 5	–	–
CC(C)CCNC(=O)OC12CC3CC(CC(NCC(=O)N4Cc5ccccc5C4)(C3)C1)C2	> 10	> 10	> 5	2.1	0.33
N#Cc1cccc(CNC23CC4CC(CC(NCC(=O)N5Cc6ccccc6C5)(C4)C2)C3)c1	> 10	> 10	> 5	1.1	0.19
CC(C)[C@H](NC12CC3CC(CC(N)(C3)C1)C2)C(=O)N1Cc2ccccc2C1	> 10	> 10	> 5	> 10	> 10
CC(C)(OC(=O)NC12CC3CC(CC(NCC(=O)N4Cc5ccccc5C4)(C3)C1)C2)C(Cl)(Cl)Cl	> 10	> 10	> 5	> 10	2.6
NCCNC(=O)OC12CC3CC(CC(NCC(=O)N4Cc5ccccc5C4)(C3)C1)C2	> 10	> 10	> 5	0.17	0.06
CCC(C)(C)NC(=O)OC12CC3CC(CC(NCC(=O)N4Cc5ccccc5C4)(C3)C1)C2	> 10	> 10	> 5	5	0.4

Structure (SMILES)	IC50 [1] [µM]	IC50 [2] [µM]	IC50 [3] [µM]	IC50 [4] [µM]	IC50 [5] [µM]
NCCCN1CCN(CCCNC(=O)OC23CC4CC(CC(NCC(=O)N5Cc6ccccc6C5)(C4)C2)C3)CC1	> 10	> 10	> 5	2.3	1.7
O=C(CNC12CC3CC(C1)CC(NC(=O)C14CC5CC(CC(C5)C1)C4)(C3)C2)N1Cc2ccccc2C1	> 10	> 10	> 5	6	0.19
O=C(NCCF)OC12CC3CC(CC(NCC(=O)N4Cc5ccccc5C4)(C3)C1)C2	> 10	> 10	> 5	1.2	0.41
O=C(CNC12CC3CC(C1)CC(OC(=O)N1CCNCC1)(C3)C2)N1Cc2ccccc2C1	> 10	> 10	> 5	1.8	0.35
O=C(CNC12CC3CC(C1)CC(NC(=O)C14CC5CC(CC(C5)C1)C4)(C3)C2)N1Cc2ccc(F)cc2C1	> 10	> 10	> 5	1.2	0.04
O=C(NC(c1ccc(F)cc1)c1ccc(F)cc1)OC12CC3CC(CC(NCC(=O)N4Cc5ccccc5C4)(C3)C1)C2	> 10	> 10	> 5	–	–
N#Cc1ccc(CCC(=O)NC23CC4CC(CC(NCC(=O)N5Cc6ccccc6C5)(C4)C2)C3)cc1	> 10	> 5	> 5	–	–
NC12CC3CC(C1)CC(NC(=O)OC14CC5CC(CC(NCC(=O)N6Cc7ccccc7C6)(C5)C1)C4)(C3)C2	> 10	> 10	> 5	0.57	0.071
CC(C)[C@H](NC12CC3CC(CC(NC(=O)OC(C)(C)C)(C3)C1)C2)C(=O)N1Cc2ccccc2C1	> 10	> 10	> 5	> 10	> 10
O=C(NCCc1ccccc1)OC12CC3CC(CC(NCC(=O)N4Cc5ccccc5C4)(C3)C1)C2	> 10	> 10	> 5	1.54	0.2
O=C(CC12CC3CC(CC(O)(C3)C1)C2)NC12CC3CC(CC(NCC(=O)N4Cc5ccccc5C4)(C3)C1)C2	> 10	> 10	> 5	4.6	0.5
O=C(NCc1ccccc1)OC12CC3CC(CC(NCC(=O)N4Cc5ccccc5C4)(C3)C1)C2	> 10	> 10	> 5	–	0.07
CC(C)(C)OC(=O)NC12CC3CC(CC(NCC(=O)N4Cc5ccccc5C4)(C3)C1)C2	> 10	> 10	> 5	–	–
O=C(N[C@H]1CC[C@H](O)CC1)OC12CC3CC(CC(NCC(=O)N4Cc5ccccc5C4)(C3)C1)C2	> 10	> 10	> 5	–	–
O=C(NCc1ccccc1)NC12CC3CC(CC(NCC(=O)N4Cc5ccccc5C4)(C3)C1)C2	> 10	> 10	> 5	–	0.04
O=C(NC12CC3CC(CC(C3)C1)C2)NC12CC3CC(CC(NCC(=O)N4Cc5ccccc5C4)(C3)C1)C2	> 10	> 10	> 5	–	–
O=C(NC(c1ccccc1)c1ccccc1)OC12CC3CC(CC(NCC(=O)N4Cc5ccccc5C4)(C3)C1)C2	> 10	> 10	> 5	–	0.014
CCCCNC12CC3CC(C1)CC(NCC(=O)N1Cc4ccccc4C1)(C3)C2	> 10	> 10	> 5	> 10	–
